In PubChem BioAssay (NCI) one finds TGI data, which are given here for 13 compounds.

Each structure is given as a SMILES string.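 Five concentrations, 48 hours, 96-well plates. Definition used: TGI = concentration required for complete inhibition of growth.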

Some test systems named below: NCI-H522 lung; SK-MEL-2 melanoma; CAKI-1 renal; DU-145 prostate; BT-549 breast; HL-60(TB) leukemia; A549 NSCLC; UACC-62 melanoma; SF-539 CNS; PC-3 prostate.
Test in all cases: growth of human tumour cells (NCI), 48 h

In the case of `Clc1ccc(CCN2CCN(CCCc3ccccc3)CC2)cc1Cl`, the TGI was 36.7 µM with NCI-H522 lung; 36.4 µM in the assay on SK-MEL-2 melanoma; 33.8 µM with CAKI-1 renal; 30.4 µM in the assay with DU-145 prostate; 29.4 µM in the assay with BT-549 breast; 44.7 µM in the assay with HL-60(TB) leukemia. Moreover, the TGI with A549 NSCLC came to 29.9 µM; in the assay on UACC-62 melanoma, 31.5 µM; with SF-539 CNS it was 32.4 µM; in the assay on PC-3 prostate it was 31.6 µM.

For `CCOC(=O)C1C(=O)C=C(c2cc(C)ccc2O)CC1c1cccc(Br)c1` (stereo not given), the TGI is 35.1 µM with NCI-H522 lung; 39.4 µM with SK-MEL-2 melanoma; 80.5 µM in the assay with CAKI-1 renal; more than 100 µM with DU-145 prostate; 72.7 µM with BT-549 breast; 44.2 µM in the assay on HL-60(TB) leukemia. Besides, the TGI amounted to 51.2 µM in the assay with A549 NSCLC, 28 µM in the assay on UACC-62 melanoma, 35.2 µM in the assay with SF-539 CNS and 40.4 µM in the assay on PC-3 prostate.

On to `O=S(=O)(N1CCCCN(S(=O)(=O)C(F)(F)F)CCCN(S(=O)(=O)C(F)(F)F)CCCN(S(=O)(=O)C(F)(F)F)CCCCN(S(=O)(=O)C(F)(F)F)CCCN(S(=O)(=O)C(F)(F)F)CCC1)C(F)(F)F`, for which the TGI in the assay on NCI-H522 lung is more than 100 µM; in the assay on SK-MEL-2 melanoma it was more than 100 µM; with CAKI-1 renal, more than 100 µM; in the assay on DU-145 prostate, more than 100 µM; with BT-549 breast, 73.2 µM; in the assay with HL-60(TB) leukemia it was more than 100 µM. The TGI was more than 100 µM in the assay with A549 NSCLC, more than 100 µM in the assay on UACC-62 melanoma, 84.1 µM in the assay with SF-539 CNS and more than 100 µM with PC-3 prostate.

As to `CSc1nc(Cl)c2c(n1)Sc1ncnn1C2O` (stereo not given), the TGI with NCI-H522 lung is 4.23 µM; in the assay on SK-MEL-2 melanoma, 41.8 µM; in the assay on CAKI-1 renal, 25.4 µM; with DU-145 prostate, 19.2 µM; in the assay with BT-549 breast, 28.8 µM; in the assay with HL-60(TB) leukemia it was 14.8 µM. In addition, the TGI in the assay on A549 NSCLC amounted to 36.9 µM; with UACC-62 melanoma, 26.3 µM; with SF-539 CNS, 15.5 µM; in the assay on PC-3 prostate it was 27.7 µM.

As for `COc1cccc2c(NNc3ccc(Cl)cc3)c3ccc([N+](=O)[O-])cc3nc12`, the TGI in the assay on NCI-H522 lung is 21.1 µM; in the assay on SK-MEL-2 melanoma it was more than 100 µM; in the assay on CAKI-1 renal, 15.2 µM; in the assay on DU-145 prostate, 53.5 µM; in the assay with BT-549 breast, 29.8 µM; in the assay on HL-60(TB) leukemia, 28.8 µM. In addition, the TGI in the assay with A549 NSCLC amounted to 28.4 µM; in the assay with UACC-62 melanoma, 26.3 µM; in the assay on SF-539 CNS it was 33 µM; in the assay on PC-3 prostate, 26.1 µM.

In the case of `O=C(C(=O)n1ccc2ccccc21)c1c[nH]c2ccccc12`, the TGI in the assay with NCI-H522 lung, with SK-MEL-2 melanoma, in the assay with CAKI-1 renal, with DU-145 prostate, with BT-549 breast and in the assay with HL-60(TB) leukemia was more than 10 µM each time. In addition, the TGI with A549 NSCLC, in the assay on UACC-62 melanoma, in the assay with SF-539 CNS and with PC-3 prostate was more than 10 µM each time.

For the compound `CC(C)(C)OC(=O)N(CCCN)CCCCN(CCCN)C(=O)OC(C)(C)C`, the TGI in the assay with NCI-H522 lung, in the assay with SK-MEL-2 melanoma, with CAKI-1 renal, in the assay on DU-145 prostate, in the assay on BT-549 breast and with HL-60(TB) leukemia was more than 100 µM each time. Further, the TGI with A549 NSCLC, in the assay with UACC-62 melanoma, in the assay with SF-539 CNS and with PC-3 prostate was more than 100 µM each time.

As to `C[C@H]1C(=O)C2=C[C@H]1CCC(=O)[C@]1(C)CCCC(C)(C)[C@H]1C[C@H]2O`, the TGI is 20.6 µM in the assay with NCI-H522 lung; more than 100 µM in the assay on SK-MEL-2 melanoma; more than 100 µM with CAKI-1 renal; 96.8 µM with DU-145 prostate; 94.5 µM in the assay on BT-549 breast; 39.7 µM in the assay on HL-60(TB) leukemia. Also, the TGI was 43.6 µM in the assay with A549 NSCLC, more than 100 µM with UACC-62 melanoma, 28.8 µM with SF-539 CNS and more than 100 µM in the assay with PC-3 prostate.

For the compound `Fc1ccccc1N=c1oc2ccc(Br)cc2cc1-c1nc2ccccc2[nH]1`, the TGI was 6.82 µM in the assay on NCI-H522 lung; 26.6 µM in the assay on SK-MEL-2 melanoma; 35.8 µM in the assay with CAKI-1 renal; more than 42.5 µM in the assay on DU-145 prostate; 26.7 µM with BT-549 breast; more than 100 µM with HL-60(TB) leukemia. Besides, the TGI with A549 NSCLC is 23.1 µM; in the assay with UACC-62 melanoma it was 51.5 µM; in the assay with SF-539 CNS, 4.58 µM; with PC-3 prostate, more than 23.4 µM.

As to `O=C1NC(N2CCCC(CO)C2)=N/C1=C\c1ccc(O)cc1` (stereo not given), the TGI in the assay with NCI-H522 lung, in the assay with SK-MEL-2 melanoma, in the assay on CAKI-1 renal, with DU-145 prostate, with BT-549 breast and with HL-60(TB) leukemia was more than 100 µM each time. The TGI in the assay on A549 NSCLC, in the assay with UACC-62 melanoma, in the assay with SF-539 CNS and in the assay on PC-3 prostate was more than 100 µM in each case.

With `Clc1ccc(CCn2ccc3ccccc32)c(Cl)c1`, the TGI with NCI-H522 lung, with SK-MEL-2 melanoma, in the assay with CAKI-1 renal, with DU-145 prostate, in the assay with BT-549 breast and in the assay with HL-60(TB) leukemia was more than 100 µM each time. The TGI in the assay with A549 NSCLC, in the assay with UACC-62 melanoma, with SF-539 CNS and in the assay on PC-3 prostate was more than 100 µM in each case.

Regarding `Nc1c2ccccc2nc2ccc(C(=O)Nc3ccc(S(N)(=O)=O)cc3)cc12`, the TGI in the assay on NCI-H522 lung, with SK-MEL-2 melanoma, with CAKI-1 renal, with DU-145 prostate, in the assay with BT-549 breast and with HL-60(TB) leukemia was more than 100 µM each time. Also, the TGI in the assay with A549 NSCLC, with UACC-62 melanoma, in the assay with SF-539 CNS and with PC-3 prostate was more than 100 µM each time.

In the case of `Cc1ccc(-c2cn3c(nc4ccccc43)c(C)n2)cc1`, the TGI with NCI-H522 lung was more than 100 µM; in the assay on SK-MEL-2 melanoma it was more than 63.8 µM; in the assay on CAKI-1 renal, more than 100 µM; with DU-145 prostate, more than 100 µM; with BT-549 breast, more than 89.4 µM; in the assay on HL-60(TB) leukemia, more than 100 µM. Moreover, the TGI was more than 100 µM in the assay with A549 NSCLC, more than 81.3 µM in the assay with UACC-62 melanoma, more than 100 µM in the assay with SF-539 CNS and more than 100 µM with PC-3 prostate.
